Experimental data published in US4511565A, “7α-Acylthio-1α,2α-methylene- 3-oxo-17α-pregn-4-ene-21,17-carbolactones, their production and pharmaceutical preparations containing them” (Schering Aktiengesellschaft, priority 1982, dated 1985).
“Also recorded” adds a separate entry of the source.

Assays:
male patients = settings: extended treatment of male patients; traced to antiandrogenic side effect; cited from earlier work
women = settings: ascribed to the gestagenic side effect; cited from earlier work
aldosterone = experiment: antialdosterone effect in the experimental model by Hollmann; type: in vivo; settings: spironolactone=1
From the text: The new compounds of Formula I have the properties of neutralizing or reversing the effect of aldosterone or deoxycorticosterone on the elimination of sodium and potassium. The compounds according to this invention are thus suited for the treatment of certain forms of hypertension, e.g., those treatable by spironolactone, edemas, primary aldosteronism, and other endocrine disturbances caused by aldosterone. They can also be used as diuretics.

Row | SMILES | undesirable endocrine side effects in men (male patients) | side effects on women (women) | Relative antialdosterone effect (aldosterone)
1 | CC(=O)S[C@@H]1CC2=CC(=O)CC[C@]2(C)[C@H]2CC[C@@]3(C)[C@@H](CC[C@@]34CCC(=O)O4)[C@H]12 [Spironolactone, spironolactone] | gynecomastia; also recorded: impotence | amenorrhea; also recorded: menstrual irregularities | –
2 | CC(=O)S[C@@H]1CC2=CC(=O)[C@@H]3C[C@@H]3[C@]2(C)[C@H]2CC[C@@]3(C)[C@@H]([C@@H]4C[C@@H]4[C@@]34CCC(=O)O4)[C@H]12 [B, 7α-acetylthio-1α,2α;15β,16β-dimethylene-3-oxo-17α-pregn-4-ene-21,17-carbolactone] | – | – | 2-3
3 | CC(=O)S[C@@H]1CC2=CC(=O)[C@@H]3C[C@@H]3[C@]2(C)[C@H]2CC[C@@]3(C)[C@@H]([C@H]4C[C@H]4[C@@]34CCC(=O)O4)[C@H]12 [C, 7α-acetylthio-1α,2α;15α,16α-dimethylene-3-oxo-17α-pregn-4-ene-21,17-carbolactone] | – | – | 3-4
